According to PubChem BioAssay AID2060889 (Molecular Pharmacology Branch, DTP, NCI, 2025):

Tested on: LG0567-F671-PDC complex spheroids viability
Test: Anticancer human tumor LG0567-F671-PDC patient-derived lung adenocarcinoma cell line growth inhibition [RAS]
Conditions: for IC50: curve of first compound; for viability, T/C: stronger effect = lower value
Summary of the method: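 Tumour cells grown as complex spheroids with HUVEC endothelial cells and mesenchymal stem cells, treated with RAS pathway inhibitor combinations. Each agent spans half-log steps from near clinical Cmax, or 10 microM where Cmax is unknown.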
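Also: spheroids exposed to compound for seven days before readout.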
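For IC50 in this document: luminescence signal used as a proxy for viable cells.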

Question: How did the IC50 (second compound 0.000949 µM) turn out when `CCc1c2c(nc3ccc(O)cc13)-c1cc3c(c(=O)n1C2)COC(=O)[C@]3(O)CC` + CCn1c(-c2cccnc2C(C)OC)c2c3cc(ccc31)N1CCOC(CC(NC(=O)C(C(C)C)N(C)C(=O)C3(F)CCN(C(=O)C#CC(C)(C)N(C)C)CC3)C(=O)N3CCCC(N3)C(=O)OCC(C)(C)C2)C1 was run?
Answer: Its IC50 is under 0.949 nM.

Question: What about the IC50 (second compound 0.003 µM) of the same compound?
Answer: Its IC50 is under 0.949 nM.

Question: What about the IC50 (second compound 0.00949 µM) of the same compound?
Answer: Its IC50 is under 0.949 nM.

Question: And the IC50 (second compound 0.03 µM)?
Answer: The IC50 was under 0.949 nM.

Question: And the IC50 (second compound 0.0949 µM)?
Answer: Its IC50 is under 0.949 nM.

Question: What about the IC50 (second compound 0.3 µM) of the same compound?
Answer: Its IC50 is under 0.949 nM.

Question: What about the viability, T/C (second compound 0.000949 µM, first compound 0.000949 µM) of the same compound?
Answer: The viability, T/C was 13.8%.

Question: And the viability, T/C (second compound 0.000949 µM, first compound 0.003 µM)?
Answer: The viability, T/C was 13.3%.

Question: And the viability, T/C (second compound 0.000949 µM, first compound 0.00949 µM)?
Answer: Its viability, T/C is 11.2%.

Question: What about the viability, T/C (second compound 0.000949 µM, first compound 0.03 µM) of the same compound?
Answer: The viability, T/C was 9.37%.

Question: And the viability, T/C (second compound 0.000949 µM, first compound 0.0949 µM)?
Answer: Its viability, T/C is 6.34%.

Question: And the viability, T/C (second compound 0.000949 µM, first compound 0.3 µM)?
Answer: The viability, T/C was 3.92%.

Question: And the viability, T/C (second compound 0.003 µM, first compound 0.000949 µM)?
Answer: Its viability, T/C is 15.5%.

Question: And the viability, T/C (second compound 0.003 µM, first compound 0.003 µM)?
Answer: Its viability, T/C is 13.3%.

Question: And the viability, T/C (second compound 0.003 µM, first compound 0.00949 µM)?
Answer: Its viability, T/C is 11.8%.

Question: What about the viability, T/C (second compound 0.003 µM, first compound 0.03 µM) of the same compound?
Answer: The viability, T/C was 9.3%.

Question: What about the viability, T/C (second compound 0.003 µM, first compound 0.0949 µM) of the same compound?
Answer: The viability, T/C was 6.04%.

Question: And the viability, T/C (second compound 0.003 µM, first compound 0.3 µM)?
Answer: Its viability, T/C is 3.42%.

Question: And the viability, T/C (second compound 0.00949 µM, first compound 0.000949 µM)?
Answer: Its viability, T/C is 13.6%.

Question: And the viability, T/C (second compound 0.00949 µM, first compound 0.003 µM)?
Answer: The viability, T/C was 14.2%.

Question: What about the viability, T/C (second compound 0.00949 µM, first compound 0.00949 µM) of the same compound?
Answer: The viability, T/C was 11.6%.

Question: And the viability, T/C (second compound 0.00949 µM, first compound 0.03 µM)?
Answer: Its viability, T/C is 9.12%.

Question: What about the viability, T/C (second compound 0.00949 µM, first compound 0.0949 µM) of the same compound?
Answer: The viability, T/C was 6.47%.

Question: And the viability, T/C (second compound 0.00949 µM, first compound 0.3 µM)?
Answer: The viability, T/C was 3.47%.

Question: And the viability, T/C (second compound 0.03 µM, first compound 0.000949 µM)?
Answer: The viability, T/C was 12.1%.

Question: And the viability, T/C (second compound 0.03 µM, first compound 0.003 µM)?
Answer: The viability, T/C was 11.9%.

Question: What about the viability, T/C (second compound 0.03 µM, first compound 0.00949 µM) of the same compound?
Answer: Its viability, T/C is 11.2%.

Question: And the viability, T/C (second compound 0.03 µM, first compound 0.03 µM)?
Answer: The viability, T/C was 7.2%.

Question: And the viability, T/C (second compound 0.03 µM, first compound 0.0949 µM)?
Answer: Its viability, T/C is 4.9%.

Question: What about the viability, T/C (second compound 0.03 µM, first compound 0.3 µM) of the same compound?
Answer: The viability, T/C was 2.69%.

Question: What about the viability, T/C (second compound 0.0949 µM, first compound 0.000949 µM) of the same compound?
Answer: The viability, T/C was 12.8%.

Question: And the viability, T/C (second compound 0.0949 µM, first compound 0.003 µM)?
Answer: Its viability, T/C is 9.98%.

Question: What about the viability, T/C (second compound 0.0949 µM, first compound 0.00949 µM) of the same compound?
Answer: The viability, T/C was 10.1%.

Question: What about the viability, T/C (second compound 0.0949 µM, first compound 0.03 µM) of the same compound?
Answer: The viability, T/C was 6.64%.

Question: What about the viability, T/C (second compound 0.0949 µM, first compound 0.0949 µM) of the same compound?
Answer: The viability, T/C was 4.22%.

Question: And the viability, T/C (second compound 0.0949 µM, first compound 0.3 µM)?
Answer: Its viability, T/C is 2.51%.

Question: And the viability, T/C (second compound 0.3 µM, first compound 0.000949 µM)?
Answer: The viability, T/C was 10.2%.

Question: What about the viability, T/C (second compound 0.3 µM, first compound 0.003 µM) of the same compound?
Answer: The viability, T/C was 8.84%.

Question: And the viability, T/C (second compound 0.3 µM, first compound 0.00949 µM)?
Answer: Its viability, T/C is 7.66%.

Question: What about the viability, T/C (second compound 0.3 µM, first compound 0.03 µM) of the same compound?
Answer: Its viability, T/C is 5.32%.

Question: And the viability, T/C (second compound 0.3 µM, first compound 0.0949 µM)?
Answer: The viability, T/C was 3.16%.

Question: What about the viability, T/C (second compound 0.3 µM, first compound 0.3 µM) of the same compound?
Answer: The viability, T/C was 2.05%.

Question: Which IC50 (second compound 0.000949 µM) does the source give for `CC(C)NCC(C(=O)N1CCN(c2ncnc3c2C(C)CC3O)CC1)c1ccc(Cl)cc1` (centres undefined) + CCn1c(-c2cccnc2C(C)OC)c2c3cc(ccc31)N1CCOC(CC(NC(=O)C(C(C)C)N(C)C(=O)C3(F)CCN(C(=O)C#CC(C)(C)N(C)C)CC3)C(=O)N3CCCC(N3)C(=O)OCC(C)(C)C2)C1 here?
Answer: Its IC50 is under 31.6 nM.

Question: What about the IC50 (second compound 0.003 µM) of the same compound?
Answer: The IC50 was under 31.6 nM.

Question: And the IC50 (second compound 0.00949 µM)?
Answer: Its IC50 is under 31.6 nM.

Question: What about the IC50 (second compound 0.03 µM) of the same compound?
Answer: Its IC50 is under 31.6 nM.

Question: What about the IC50 (second compound 0.0949 µM) of the same compound?
Answer: The IC50 was under 31.6 nM.

Question: What about the IC50 (second compound 0.3 µM) of the same compound?
Answer: Its IC50 is under 31.6 nM.

Question: What about the viability, T/C (second compound 0.000949 µM, first compound 0.0316 µM) of the same compound?
Answer: The viability, T/C was 11.2%.

Question: And the viability, T/C (second compound 0.000949 µM, first compound 0.1 µM)?
Answer: The viability, T/C was 13.7%.

Question: And the viability, T/C (second compound 0.000949 µM, first compound 0.316 µM)?
Answer: The viability, T/C was 12.3%.

Question: What about the viability, T/C (second compound 0.000949 µM, first compound 1 µM) of the same compound?
Answer: The viability, T/C was 12.3%.

Question: What about the viability, T/C (second compound 0.000949 µM, first compound 3.16 µM) of the same compound?
Answer: Its viability, T/C is 8.16%.

Question: What about the viability, T/C (second compound 0.000949 µM, first compound 10 µM) of the same compound?
Answer: Its viability, T/C is 8.26%.

Question: And the viability, T/C (second compound 0.003 µM, first compound 0.0316 µM)?
Answer: Its viability, T/C is 12.4%.

Question: What about the viability, T/C (second compound 0.003 µM, first compound 0.1 µM) of the same compound?
Answer: Its viability, T/C is 11.7%.

Question: What about the viability, T/C (second compound 0.003 µM, first compound 0.316 µM) of the same compound?
Answer: Its viability, T/C is 11.7%.

Question: What about the viability, T/C (second compound 0.003 µM, first compound 1 µM) of the same compound?
Answer: The viability, T/C was 10.8%.

Question: What about the viability, T/C (second compound 0.003 µM, first compound 3.16 µM) of the same compound?
Answer: Its viability, T/C is 8.33%.

Question: What about the viability, T/C (second compound 0.003 µM, first compound 10 µM) of the same compound?
Answer: The viability, T/C was 7.72%.

Question: And the viability, T/C (second compound 0.00949 µM, first compound 0.0316 µM)?
Answer: Its viability, T/C is 11%.

Question: What about the viability, T/C (second compound 0.00949 µM, first compound 0.1 µM) of the same compound?
Answer: Its viability, T/C is 11.3%.

Question: And the viability, T/C (second compound 0.00949 µM, first compound 0.316 µM)?
Answer: Its viability, T/C is 12.6%.

Question: What about the viability, T/C (second compound 0.00949 µM, first compound 1 µM) of the same compound?
Answer: The viability, T/C was 10.1%.

Question: What about the viability, T/C (second compound 0.00949 µM, first compound 3.16 µM) of the same compound?
Answer: The viability, T/C was 8.54%.

Question: And the viability, T/C (second compound 0.00949 µM, first compound 10 µM)?
Answer: Its viability, T/C is 7.28%.

Question: And the viability, T/C (second compound 0.03 µM, first compound 0.0316 µM)?
Answer: The viability, T/C was 11.5%.

Question: What about the viability, T/C (second compound 0.03 µM, first compound 0.1 µM) of the same compound?
Answer: The viability, T/C was 10.2%.

Question: And the viability, T/C (second compound 0.03 µM, first compound 0.316 µM)?
Answer: The viability, T/C was 12.5%.

Question: What about the viability, T/C (second compound 0.03 µM, first compound 1 µM) of the same compound?
Answer: Its viability, T/C is 8.64%.

Question: What about the viability, T/C (second compound 0.03 µM, first compound 3.16 µM) of the same compound?
Answer: Its viability, T/C is 7.32%.

Question: What about the viability, T/C (second compound 0.03 µM, first compound 10 µM) of the same compound?
Answer: Its viability, T/C is 7.5%.

Question: What about the viability, T/C (second compound 0.0949 µM, first compound 0.0316 µM) of the same compound?
Answer: The viability, T/C was 9.18%.

Question: What about the viability, T/C (second compound 0.0949 µM, first compound 0.1 µM) of the same compound?
Answer: Its viability, T/C is 10.3%.

Question: And the viability, T/C (second compound 0.0949 µM, first compound 0.316 µM)?
Answer: Its viability, T/C is 10.3%.

Question: And the viability, T/C (second compound 0.0949 µM, first compound 1 µM)?
Answer: Its viability, T/C is 8.97%.

Question: And the viability, T/C (second compound 0.0949 µM, first compound 3.16 µM)?
Answer: Its viability, T/C is 6.83%.

Question: And the viability, T/C (second compound 0.0949 µM, first compound 10 µM)?
Answer: The viability, T/C was 6.43%.

Question: What about the viability, T/C (second compound 0.3 µM, first compound 0.0316 µM) of the same compound?
Answer: The viability, T/C was 8.3%.

Question: What about the viability, T/C (second compound 0.3 µM, first compound 0.1 µM) of the same compound?
Answer: The viability, T/C was 10.2%.

Question: What about the viability, T/C (second compound 0.3 µM, first compound 0.316 µM) of the same compound?
Answer: Its viability, T/C is 8.96%.

Question: What about the viability, T/C (second compound 0.3 µM, first compound 1 µM) of the same compound?
Answer: The viability, T/C was 6.59%.

Question: What about the viability, T/C (second compound 0.3 µM, first compound 3.16 µM) of the same compound?
Answer: The viability, T/C was 6.6%.

Question: And the viability, T/C (second compound 0.3 µM, first compound 10 µM)?
Answer: Its viability, T/C is 5.25%.
